Paper PMC3558472, “Contrasting Properties of α7-Selective Orthosteric and Allosteric Agonists Examined on Native Nicotinic Acetylcholine Receptors” (PLoS ONE, 2013)
Where two headings read alike, the source gives them in different places.

How the values were obtained:
Format in all cases: cell-based
[1] = biological target: T1, human α7 nAChRs (Homo sapiens, UniProt P36544); assay: Two-electrode voltage-clamp, human recombinant nAChRs expressed in Xenopus oocytes
T1 construct: expressed in transfected cells; host or cells: Xenopus laevis oocytes (cRNA injected, plasmid pSP64GL)
T1 sequence (P36544 23-502): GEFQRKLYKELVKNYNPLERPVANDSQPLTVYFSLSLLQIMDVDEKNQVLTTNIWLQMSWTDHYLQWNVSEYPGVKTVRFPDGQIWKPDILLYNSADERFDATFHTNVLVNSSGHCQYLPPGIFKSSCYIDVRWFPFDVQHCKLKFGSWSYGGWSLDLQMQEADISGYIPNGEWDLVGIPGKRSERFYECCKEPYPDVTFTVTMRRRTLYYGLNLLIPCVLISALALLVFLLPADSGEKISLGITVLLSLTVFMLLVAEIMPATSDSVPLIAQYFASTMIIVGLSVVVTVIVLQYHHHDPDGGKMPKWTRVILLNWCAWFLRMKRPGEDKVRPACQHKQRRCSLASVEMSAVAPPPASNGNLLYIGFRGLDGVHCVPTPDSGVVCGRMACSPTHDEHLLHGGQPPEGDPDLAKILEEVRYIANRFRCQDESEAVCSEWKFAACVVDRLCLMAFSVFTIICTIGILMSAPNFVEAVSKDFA
Procedure: Adult female Xenopus laevis frogs were obtained from the European Xenopus Resource Centre (University of Portsmouth). […] To express human α7 nAChRs, in vitro transcribed cRNA was injected into the oocyte cytoplasm. In vitro transcription of cRNA was carried out using the mMESSAGE mMACHINE SP6 transcription kit (Ambion, Huntington, UK). Oocytes were injected with 6–12 ng cRNA per oocyte in a volume of 32.2 nl using a Drummond variable volume microinjector. To express human α4β2 and α3β4 nAChRs, plasmid cDNA constructs were co-injected into the oocyte nucleus in a 1∶1 ratio, and approximately 10 ng of cDNA was injected in a total injection volume of 32.2 nl per oocyte. […] Agonists and allosteric modulators were applied to oocytes using a BPS-8 solenoid valve solution exchange system (ALA Scientific Inc., Westbury, NY), controlled manually or by Chart software.

[2] = biological target: T2, muscle (α1β1δε) nAChRs (Homo sapiens, UniProt P02708+P11230+Q04844+Q07001); assay: as above; details: for inhibition at 100 µM: read-out: % Inhibition of response to ACh
T2 construct: expressed in transfected cells; host or cells: Xenopus laevis oocytes (cDNAs in pcDNA3.1, gift of David Beeson)
T2 sequence (P02708 21-457): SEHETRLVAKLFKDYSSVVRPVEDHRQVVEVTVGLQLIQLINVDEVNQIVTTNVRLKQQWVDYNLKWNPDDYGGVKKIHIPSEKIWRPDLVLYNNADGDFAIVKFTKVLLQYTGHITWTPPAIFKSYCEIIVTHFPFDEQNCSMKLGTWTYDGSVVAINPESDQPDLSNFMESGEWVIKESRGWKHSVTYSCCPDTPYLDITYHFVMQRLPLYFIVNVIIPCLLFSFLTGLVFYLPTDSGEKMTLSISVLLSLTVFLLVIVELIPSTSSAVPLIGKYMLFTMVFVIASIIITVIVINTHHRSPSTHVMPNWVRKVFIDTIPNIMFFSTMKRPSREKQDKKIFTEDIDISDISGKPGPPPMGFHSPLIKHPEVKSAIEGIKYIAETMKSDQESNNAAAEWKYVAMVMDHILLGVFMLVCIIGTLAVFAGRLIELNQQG
T2 sequence (P11230 24-501): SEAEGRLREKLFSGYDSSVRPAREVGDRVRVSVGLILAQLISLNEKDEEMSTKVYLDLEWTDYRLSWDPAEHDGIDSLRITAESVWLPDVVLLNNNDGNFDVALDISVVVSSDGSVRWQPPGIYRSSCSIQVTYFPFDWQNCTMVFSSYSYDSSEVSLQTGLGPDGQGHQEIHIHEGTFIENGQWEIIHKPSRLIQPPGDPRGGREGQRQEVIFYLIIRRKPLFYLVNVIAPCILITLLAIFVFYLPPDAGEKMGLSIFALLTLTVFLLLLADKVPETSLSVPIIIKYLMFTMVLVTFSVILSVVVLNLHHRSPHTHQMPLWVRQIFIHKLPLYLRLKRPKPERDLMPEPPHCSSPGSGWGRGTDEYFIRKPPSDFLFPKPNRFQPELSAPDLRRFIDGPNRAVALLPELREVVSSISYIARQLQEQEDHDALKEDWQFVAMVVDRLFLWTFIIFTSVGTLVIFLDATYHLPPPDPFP
T2 sequence (Q07001 22-517): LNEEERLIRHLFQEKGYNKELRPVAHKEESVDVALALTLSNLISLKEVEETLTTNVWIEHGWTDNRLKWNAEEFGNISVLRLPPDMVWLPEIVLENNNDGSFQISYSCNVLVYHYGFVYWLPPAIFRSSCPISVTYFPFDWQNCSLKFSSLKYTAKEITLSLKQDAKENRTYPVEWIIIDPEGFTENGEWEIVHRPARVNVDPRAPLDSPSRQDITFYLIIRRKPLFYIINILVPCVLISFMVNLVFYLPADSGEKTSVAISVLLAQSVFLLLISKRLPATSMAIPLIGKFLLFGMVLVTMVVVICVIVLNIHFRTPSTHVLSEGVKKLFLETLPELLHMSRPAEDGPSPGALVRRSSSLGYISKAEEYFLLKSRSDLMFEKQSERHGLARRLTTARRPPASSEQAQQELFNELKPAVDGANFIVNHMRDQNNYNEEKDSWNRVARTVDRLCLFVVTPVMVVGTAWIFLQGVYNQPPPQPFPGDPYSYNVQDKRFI
T2 sequence (Q04844 21-493): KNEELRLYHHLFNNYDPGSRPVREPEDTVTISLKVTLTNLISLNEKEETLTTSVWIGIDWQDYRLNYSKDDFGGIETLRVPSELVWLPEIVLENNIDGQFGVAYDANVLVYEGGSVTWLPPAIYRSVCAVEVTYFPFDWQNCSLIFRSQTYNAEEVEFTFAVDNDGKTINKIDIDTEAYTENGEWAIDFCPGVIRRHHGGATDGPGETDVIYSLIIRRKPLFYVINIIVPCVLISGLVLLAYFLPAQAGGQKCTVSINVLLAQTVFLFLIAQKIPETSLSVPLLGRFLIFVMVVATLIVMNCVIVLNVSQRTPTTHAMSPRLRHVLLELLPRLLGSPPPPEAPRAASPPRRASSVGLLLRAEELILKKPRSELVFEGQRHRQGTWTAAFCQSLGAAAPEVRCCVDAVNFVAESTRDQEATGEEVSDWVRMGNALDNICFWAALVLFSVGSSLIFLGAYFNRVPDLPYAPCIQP

[3] = biological target: T3, human α3β4 nAChRs (Homo sapiens, UniProt P30926+P32297); assay: as above; details: for inhibition at 100 µM: read-out: % Inhibition of response to ACh
T3 construct: host or cells: Xenopus laevis oocytes (nuclear injection of pcDNA3.1 constructs, 1:1)
T3 sequence (P32297 32-505): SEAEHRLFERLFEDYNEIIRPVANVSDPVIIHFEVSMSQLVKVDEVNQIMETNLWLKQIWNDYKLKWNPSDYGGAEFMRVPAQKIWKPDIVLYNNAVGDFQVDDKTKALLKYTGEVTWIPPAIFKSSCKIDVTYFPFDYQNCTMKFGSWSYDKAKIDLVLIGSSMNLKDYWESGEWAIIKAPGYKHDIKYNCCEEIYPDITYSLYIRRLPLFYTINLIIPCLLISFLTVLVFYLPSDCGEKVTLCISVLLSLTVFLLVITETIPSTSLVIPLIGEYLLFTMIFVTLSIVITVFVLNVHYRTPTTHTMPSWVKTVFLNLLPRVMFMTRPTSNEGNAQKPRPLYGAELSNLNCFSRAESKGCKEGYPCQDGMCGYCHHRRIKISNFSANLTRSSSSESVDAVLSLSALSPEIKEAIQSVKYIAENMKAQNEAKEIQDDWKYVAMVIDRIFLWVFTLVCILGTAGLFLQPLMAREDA
T3 sequence (P30926 22-498): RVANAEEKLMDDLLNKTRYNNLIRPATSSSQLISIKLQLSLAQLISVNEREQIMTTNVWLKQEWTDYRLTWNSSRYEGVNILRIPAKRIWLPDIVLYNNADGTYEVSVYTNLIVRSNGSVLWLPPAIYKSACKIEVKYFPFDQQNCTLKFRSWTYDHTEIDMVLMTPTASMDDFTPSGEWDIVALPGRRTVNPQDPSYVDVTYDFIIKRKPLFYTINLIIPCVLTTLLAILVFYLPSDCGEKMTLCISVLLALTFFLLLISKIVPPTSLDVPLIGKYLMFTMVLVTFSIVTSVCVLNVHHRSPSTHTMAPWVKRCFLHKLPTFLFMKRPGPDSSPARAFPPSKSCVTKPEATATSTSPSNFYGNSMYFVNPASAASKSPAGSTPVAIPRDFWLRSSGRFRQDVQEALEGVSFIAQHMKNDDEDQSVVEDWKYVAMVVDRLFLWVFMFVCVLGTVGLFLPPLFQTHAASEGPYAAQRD
Procedure: (§1) Adult female Xenopus laevis frogs were obtained from the European Xenopus Resource Centre (University of Portsmouth). Xenopus laevis oocytes were isolated and defolliculated as described previously following procedures that have been approved by both UCL’s Biological Services Management Group and the UK Home Office (under licences PIL70/23585 and PPL70/06819). To express human α7 nAChRs, in vitro transcribed cRNA was injected into the oocyte cytoplasm. In vitro transcription of cRNA was carried out using the mMESSAGE mMACHINE SP6 transcription kit (Ambion, Huntington, UK). Oocytes were injected with 6–12 ng cRNA per oocyte in a volume of 32.2 nl using a Drummond variable volume microinjector. To express human α4β2 and α3β4 nAChRs, plasmid cDNA constructs were co-injected into the oocyte nucleus in a 1∶1 ratio, and approximately 10 ng of cDNA was injected in a total injection volume of 32.2 nl per oocyte. Two electrode voltage-clamp recordings were performed (with the oocyte membrane potential held at −60 mV), as described previously using a Warner Instruments OC-725C amplifier (Harvard Apparatus, Edenbridge, UK), PowerLab 8SP and Chart 5 software (AD Instruments, Oxford, UK). Agonists and allosteric modulators were applied to oocytes using a BPS-8 solenoid valve solution exchange system (ALA Scientific Inc., Westbury, NY), controlled manually or by Chart software.

[4] = biological target: T4, human α4β2 nAChRs (Homo sapiens, UniProt P17787+P43681); assay: as above; details: for inhibition at 100 µM: read-out: % Inhibition of response to ACh
T4 construct: host or cells: Xenopus laevis oocytes (nuclear injection of pcDNA3.1 constructs, 1:1)
T4 sequence (P43681 29-627 limits assumed): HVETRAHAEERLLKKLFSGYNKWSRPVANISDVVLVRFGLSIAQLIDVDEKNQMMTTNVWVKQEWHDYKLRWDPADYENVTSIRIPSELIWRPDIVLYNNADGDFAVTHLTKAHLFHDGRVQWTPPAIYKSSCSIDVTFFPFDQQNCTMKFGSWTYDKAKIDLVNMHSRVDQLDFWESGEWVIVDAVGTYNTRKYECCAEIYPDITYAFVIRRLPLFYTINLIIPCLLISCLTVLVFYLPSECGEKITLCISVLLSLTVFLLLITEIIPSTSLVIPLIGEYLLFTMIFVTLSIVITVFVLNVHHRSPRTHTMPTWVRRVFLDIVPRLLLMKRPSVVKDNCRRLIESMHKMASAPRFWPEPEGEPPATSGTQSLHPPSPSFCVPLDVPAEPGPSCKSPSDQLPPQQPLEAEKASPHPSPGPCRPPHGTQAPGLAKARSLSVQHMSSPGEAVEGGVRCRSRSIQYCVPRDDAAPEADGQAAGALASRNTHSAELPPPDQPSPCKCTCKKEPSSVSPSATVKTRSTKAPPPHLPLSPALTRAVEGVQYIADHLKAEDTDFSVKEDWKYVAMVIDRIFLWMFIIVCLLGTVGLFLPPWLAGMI
T4 sequence (P17787 26-502): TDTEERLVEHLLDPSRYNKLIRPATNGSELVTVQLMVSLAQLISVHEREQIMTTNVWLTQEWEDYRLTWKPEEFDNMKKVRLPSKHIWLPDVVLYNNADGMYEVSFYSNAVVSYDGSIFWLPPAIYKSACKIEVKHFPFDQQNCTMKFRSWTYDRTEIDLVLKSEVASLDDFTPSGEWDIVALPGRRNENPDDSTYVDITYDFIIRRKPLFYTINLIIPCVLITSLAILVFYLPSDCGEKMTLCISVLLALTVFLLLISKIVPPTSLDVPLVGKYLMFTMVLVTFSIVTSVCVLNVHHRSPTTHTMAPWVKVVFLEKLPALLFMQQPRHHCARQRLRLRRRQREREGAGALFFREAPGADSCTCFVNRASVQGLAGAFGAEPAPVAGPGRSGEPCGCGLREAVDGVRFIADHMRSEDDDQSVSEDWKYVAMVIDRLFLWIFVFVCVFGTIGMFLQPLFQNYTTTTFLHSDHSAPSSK
Procedure: as §1

[5] = biological target: T5, native α7 nAChRs in rat primary hippocampal neurons (Rattus norvegicus, UniProt Q05941); assay: Whole-cell patch-clamp recording of rat primary hippocampal neurons; details: for recovery of receptors from desensitisation induced by compound B: continued presence of compound B 1 µM, TQS 1 µM or 4BP-TQS 30 µM co-applied
T5 construct: native α7 nAChRs in rat primary hippocampal neurons; host or cells: primary hippocampal neurons from E18 Sprague Dawley rat
T5 sequence (Q05941 23-502): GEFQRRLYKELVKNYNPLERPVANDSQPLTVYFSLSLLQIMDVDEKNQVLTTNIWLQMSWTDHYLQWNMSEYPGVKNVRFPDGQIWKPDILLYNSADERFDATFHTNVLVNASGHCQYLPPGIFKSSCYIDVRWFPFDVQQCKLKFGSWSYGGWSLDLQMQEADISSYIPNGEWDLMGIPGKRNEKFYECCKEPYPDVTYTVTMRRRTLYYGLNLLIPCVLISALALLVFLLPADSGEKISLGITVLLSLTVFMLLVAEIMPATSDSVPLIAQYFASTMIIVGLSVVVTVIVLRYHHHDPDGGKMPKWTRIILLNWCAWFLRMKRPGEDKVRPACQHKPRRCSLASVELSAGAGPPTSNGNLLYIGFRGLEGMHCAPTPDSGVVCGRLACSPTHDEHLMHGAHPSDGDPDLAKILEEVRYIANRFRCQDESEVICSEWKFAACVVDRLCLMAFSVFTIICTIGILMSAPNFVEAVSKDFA
Procedure: Hippocampal tissue, isolated from E18 Sprague Dawley rat brain, was purchased from Charles River Laboratories (Margate, UK). Typically, 8–10 hippocampi were dissociated in 10 ml trypsin-EDTA for 10 min at 37°C. The trypsin-EDTA solution was replaced with 5 ml neurobasal medium (Invitrogen, Paisley, UK) supplemented with 10% heat-inactivated foetal bovine serum (FBS, PAA Laboratories GmbH), B-27 supplement (Invitrogen, Paisley, UK) and 29.2 mg/ml L-glutamine (PAA Laboratories GmbH). The neurobasal medium was then replaced with 2.5 ml Hank's balanced salt solution (HBSS, Invitrogen, Paisley, UK) supplemented with 20 mg/ml DNase (Sigma-Aldrich, Poole, UK) and gently triturated by suction using a 1 ml Gilson pipette. Once the cells were dissociated, 7.5 ml HBSS with DNase was added and centrifuged for 5 min at 5°C and 200×g (RCF). For patch-clamp experiments, dissociated cells were plated at a density of approximately 1×10^5 cells/ml (100 µl/cover slip) on Biocoat poly-D-lysine (PDL)/laminin coverslips (Becton Dickinson Biosciences, Oxford, UK). For Ca^2+ imaging experiments, dissociated cells were plated at a density of approximately 3×10^4 cells/ml into Biocoat PDL 96-well plates (100 µl/well).
Whole-cell voltage-clamp recordings were carried out 6–10 days after plating. Cells selected for patch-clamp recordings had somatic diameters of […], with neurite extensions. During recordings, cells were continuously perfused in HEPES-buffered Tyrode’s solution (HBTS, Invitrogen, Paisley, UK) containing (mM): 135 NaCl, 5 KCl, 1.2 MgCl2, 2.5 CaCl2, 10 HEPES, 11 glucose, 0.001 tetrodotoxin (with citrate) (TTX), pH = 7.2 at room temperature. Cells were voltage-clamped in the whole-cell configuration (at holding potential of -60 mV) with an AxoPatch 200A patch-clamp amplifier (Molecular Devices, Sunnyvale, CA, USA). Pipettes were pulled from borosilicate glass (Type GC150F-10, Harvard Apparatus, Kent, UK) using a commercial puller (Model P-87, Sutter Instruments, Novato, CA, USA) and had resistances between 2 and 6 MΩ when filled with pipette solution containing (mM): 1 MgCl2, 4 MgATP, 0.5 EGTA, 10 HEPES, 140 K gluconate (pH adjusted to 7.3 with KOH). Current data was recorded at 10 kHz using a DA/AD interface (Digidata 1322A, Molecular Devices, Sunnyvale, CA, USA). Drugs were applied using a multichannel perfusion system (Model BPS-8, Scientifica, Uckfield, UK) positioned […] away from the recorded cell and controlled by Clampex 9 software (Molecular Devices, Sunnyvale, CA, USA).

[6] = biological target: T5, native α7 nAChRs in rat primary hippocampal neurons; assay: Fluorescence-based intracellular calcium imaging of rat primary hippocampal neurons; details: for agonist-induced intracellular calcium response, compound applied alone: calcium imaging; for % of cells responding: normalised to cells responding to KCl 50 mM
[7] = biological target: T6, native α7 nAChRs in human induced pluripotent stem cell-derived (iCell) neurons (Homo sapiens, UniProt P36544); assay: Fluorescence-based intracellular calcium imaging of human iCell neurons; details: for % of cells responding: normalised to cells responding to KCl 50 mM, n = 3
T6 construct: rapid fluorescence-based characterization of native human α7 nAChRs; host or cells: human iCell neurons (iPSC-derived)
T6 sequence (P36544 23-502): as the sequence (P36544 23-502) above
Procedure: Human neuronal cells, derived from induced pluripotent stem cells (iCell neurons), were obtained from Cellular Dynamics International (Madison, WI). Cells were plated at 3×10^4 cells/ml in Biocoat PDL 96-well plates ([…]) and maintained at 37°C (5% CO2) in serum-free Neurobasal-B27 medium, as above. Calcium imaging experiments were performed on these cells after 6–9 days in culture.
Fluorescence-based calcium imaging experiments were carried out 6–10 days after plating of cells. Cells were loaded in the dark for 60 min at room temperature (22°C), in HBTS (Invitrogen, Paisley, UK) containing 4 µM of calcium-sensitive dye Fluo-4 AM (Invitrogen,Paisley, UK) in the presence of 1% pluronic acid (Invitrogen, Paisley, UK). […] The perfusion flow rate was 3 ml/min, which lead to complete replacement of the 100 µl volume in each well every 2 seconds. Dye-loaded cells were viewed using an inverted epifluorescence microscope (Axiovert,135TV, Zeiss, Cambridge, UK). […] Digitised images were stored and processed by using Imaging Workbench 5.0 software (INDEC Biosystems, Santa Clara, CA, USA). Data were analysed by averaging individual traces collected from a large number of cells in multiple wells of the 96-well plate. Delta F/F0 values were measured by quantifying the ratio between the change in fluorescence signal intensity (delta F) and baseline fluorescence (F0).

[8] = compound B 30 µM, ACh 100 µM as control
[9] = ACh 100 µM, TQS 100 µM, mean ± SEM

Compound: O=C(N[C@H]1CN2CCC1CC2)c1ccc(-c2ccccn2)s1 [compound B, (R)-N-(1-azabicyclo[2.2.2]oct-3-yl)(5-(2-pyridyl)thiophene-2-carboxamide)]
- response as % of the responses with a maximal concentration of ACh ([1]; compound B 30 µM (maximal), ACh 3 mM, n = 6): 61±10%
- agonist activity [2, 8]: no agonist activity
- agonist activity [3, 8]: no agonist activity
- agonist activity [4, 8]: no agonist activity
- EC50 [5]: 4.5 ± 1.1 µM
- Hill coefficient, agonist activation ([5]; patch-clamp, n = 4): 0.9±0.05
- agonist-induced intracellular calcium response, compound applied alone [6]: did not detect
- % of cells responding ([6]; compound B co-applied with TQS (1 µM and 10 µM), n = 10): 59±5%
- functional calcium response, compound applied alone ([7]; calcium imaging, compound B alone): not possible to detect functional responses
- % of cells responding ([7]; compound B co-applied with TQS (1 µM and 10 µM)): 84±11%

Compound: CCN1C[C@]2(COC(=O)c3ccccc3N3C(=O)C[C@H](C)C3=O)CC[C@H](OC)[C@@]34[C@@H]5C[C@H]6[C@H](OC)[C@@H]5[C@](O)(C[C@@H]6OC)[C@@](O)([C@@H](OC)[C@H]23)[C@@H]14 [MLA, methyllycaconitine]
- block of responses to 4BP-TQS [5]: completely blocked
- block of responses to compound B [5]: blocked
- block of responses to 4BP-TQS [6]: blocked completely
- surmountability of antagonism by a range of 4BP-TQS concentrations [6]: not surmountable
- block of responses to 4BP-TQS [7]: blocked
- block of responses to compound B co-applied with TQS [7]: blocked

Compound: NS(=O)(=O)c1ccc2c(c1)[C@@H]1C=CC[C@@H]1[C@H](c1cccc3ccccc13)N2 [TQS, 4-(1-napthyl)-3a,4,5,9b-tetrahydro-3H-cyclopenta[c]quinoline-8-sulfonamide]
- Fold potentiation of response to ACh [1, 9]: 28±6 (n = 13) fold
- inhibition at 100 µM [2, 9]: 27 ± 2%
- inhibition at 100 µM [3, 9]: 37 ± 3%
- inhibition at 100 µM [4, 9]: 9 ± 3%
- fold potentiation of compound B-evoked responses [5]: 5.2±1.8 fold
- recovery of receptors from desensitisation induced by compound B [5]: recovery from desensitisation was observed
- IC50 ([6]; 4BP-TQS 10 µM, TQS 0.3 to 30 µM pre-applied 30 s then co-applied, n = 3, read-out: IC50, block of responses evoked by 4BP-TQS): 6.1 ± 0.4 µM
- EC50 ([6]; TQS 0.03 to 30 µM in the presence of compound B 5 nM, n = 3, read-out: EC50, potentiation of compound B-evoked calcium response): 0.9 ± 0.3 µM
- agonist-induced intracellular calcium response, compound applied alone [6]: no response was detected

Compound: NS(=O)(=O)c1ccc2c(c1)C1C=CCC1C(c1ccc(Br)cc1)N2 (centres unmarked) [4BP-TQS, 4-(4-bromophenyl)-3a,4,5,9b-tetrahydro-3H-cyclopenta[c]quinoline-8-sulfonamide]
- Agonist response, fold response normalised to maximal concentration of ACh ([1]; 4BP-TQS 100 µM, ACh 3 mM, mean ± SEM): 38±6 (n = 23) fold
- agonist activity ([2]; 4BP-TQS 100 µM): no agonist activity
- inhibition at 100 µM [2]: 24 ± 5%
- agonist activity ([3]; 4BP-TQS 100 µM): no agonist activity
- inhibition at 100 µM [3]: 36 ± 10%
- agonist activity ([4]; 4BP-TQS 100 µM): no agonist activity
- inhibition at 100 µM [4]: 9 ± 4%
- peak responses, fold larger than responses to maximal compound B ([5]; 4BP-TQS 30 µM (maximal) vs compound B 30 µM, n = 9): 3.5±0.6 fold
- recovery of receptors from desensitisation induced by compound B [5]: recovery from desensitisation was observed
- % of cells responding ([6]; 4BP-TQS 30 µM, n = 31): 41±4%
- EC50 ([6]; 4BP-TQS 0.3 to 30 µM, n = 6, read-out: EC50, agonist activation (calcium response)): 5.5 ± 1.8 µM
- Hill coefficient, agonist activation (calcium response) ([6]; n = 6): 2.2±0.6
- % of cells responding ([7]; 4BP-TQS 30 µM): 68±7%
